EP0228113A2 (priority 1985, dated 1987)
In brackets after ≈: the same amount, converted by molar mass.

Columns and labels:
Format in all cases: cell-based
L.longbeachae gr. 1 = assay: microbe, parasite or virus in culture; conditions: pH 6; 48 hours; 37°C
L.longbeachae gr. 2 = assay: microbe, parasite or virus in culture; conditions: pH 6; 48 hours; 37°C
L.dumoffii = assay: microbe, parasite or virus in culture; conditions: pH 6; 48 hours; 37°C
L.jordanis = assay: microbe, parasite or virus in culture; conditions: pH 6; 48 hours; 37°C
L.gormanii = assay: MIC determination on buffered charcoal yeast-extract agar (Example I); conditions: Fluoribacter gormanii, pH 6,9, 48 hours, 37°C
L.bozemanii gr. 1 = assay: microbe, parasite or virus in culture; conditions: pH 6; 48 hours; 37°C
L.wadsworthii = assay: microbe, parasite or virus in culture; conditions: pH 6; 48 hours; 37°C
L.oakridgensis = assay: microbe, parasite or virus in culture; conditions: pH 6; 48 hours; 37°C
L.micdadei = assay: microbe, parasite or virus in culture; conditions: pH 6; 48 hours; 37°C
L.pneumophila gr. 2 = assay: microbe, parasite or virus in culture; conditions: Legionella pneumophila, GR.2, 48 h, pH 6
L.pneumophila gr. 3 = assay: microbe, parasite or virus in culture; conditions: Legionella pneumophila, GR.3, 48 h, pH 6
L.pneumophila gr. 4 = assay: microbe, parasite or virus in culture; conditions: Legionella pneumophila, GR.4, 48 h, pH 6
L.pneumophila gr. 5 = assay: microbe, parasite or virus in culture; conditions: Legionella pneumophila, GR.5, 48 h, pH 6
L.pneumophila gr. 6 = assay: microbe, parasite or virus in culture; conditions: Legionella pneumophila, GR.6, 48 h, pH 6
L.pneumophila gr. 7 = assay: microbe, parasite or virus in culture; conditions: Legionella pneumophila, GR.7, 48 h, pH 6
L.pneumophila gr. 8 = assay: microbe, parasite or virus in culture; conditions: Legionella pneumophila, GR.8, 48 h, pH 6
L.pneumophila gr. 9 = assay: microbe, parasite or virus in culture; conditions: Legionella pneumophila, GR.9, 48 h, pH 6
L.pneumophila gr.10 = assay: microbe, parasite or virus in culture; conditions: Legionella pneumophila, GR.10, 48 h, pH 6
Myxococcus xanthus = assay: MIC determination on casitone agar (Example III); conditions: 96 h, pH 7.6, casitone agar pH 7,6, four days, 30°C
[1] = tested on: Legionella pneumophila gr. 1; assay: microbe, parasite or virus in culture; conditions: GR.1, 96 h, pH 6
[2] = tested on: Legionella pneumophila gr. 5; assay: microbe, parasite or virus in culture; conditions: GR.5, 96 h, pH 6

Compound | MIC (L.longbeachae gr. 1) | MIC (L.longbeachae gr. 2) | MIC (L.dumoffii) | MIC (L.jordanis) | MIC (L.gormanii) | MIC (L.bozemanii gr. 1) | MIC (L.wadsworthii) | MIC (L.oakridgensis) | MIC (L.micdadei) | MIC (L.pneumophila gr. 2) | MIC (L.pneumophila gr. 3) | MIC (L.pneumophila gr. 4) | MIC (L.pneumophila gr. 5) | MIC (L.pneumophila gr. 6) | MIC (L.pneumophila gr. 7) | MIC (L.pneumophila gr. 8) | MIC (L.pneumophila gr. 9) | MIC (L.pneumophila gr.10) | MIC (Myxococcus xanthus) | MIC [1] | other results
c1ccc(-c2ccc(C(c3ccccc3)n3ccnc3)cc2)cc1 (stereo not drawn) [bifonazole] | 64 µg/mL (≈ 206 µM) | 64 µg/mL (≈ 206 µM) | 64 µg/mL (≈ 206 µM) | 64 µg/mL (≈ 206 µM) | 128 µg/mL (≈ 412 µM) | 128 µg/mL (≈ 412 µM) | 32 µg/mL (≈ 103 µM) | 64 µg/mL (≈ 206 µM) | 64 µg/mL (≈ 206 µM) | 128 µg/mL (≈ 412 µM) | 128 µg/mL (≈ 412 µM) | 128 µg/mL (≈ 412 µM) | 64 µg/mL (≈ 206 µM) | 64 µg/mL (≈ 206 µM) | 128 µg/mL (≈ 412 µM) | 128 µg/mL (≈ 412 µM) | 128 µg/mL (≈ 412 µM) | 128 µg/mL (≈ 412 µM) |  |  | 
Clc1ccccc1C(c1ccc(-c2ccccc2)cc1)n1ccnc1 (stereo not drawn) [lombazole] | 64 µg/mL (≈ 186 µM) | 64 µg/mL (≈ 186 µM) | 64 µg/mL (≈ 186 µM) | 64 µg/mL (≈ 186 µM) | 64 µg/mL (≈ 186 µM) | 128 µg/mL (≈ 371 µM) | 32 µg/mL (≈ 92.8 µM) | 64 µg/mL (≈ 186 µM) | 64 µg/mL (≈ 186 µM) | 128 µg/mL (≈ 371 µM) | 128 µg/mL (≈ 371 µM) | 128 µg/mL (≈ 371 µM) | 64 µg/mL (≈ 186 µM) | 64 µg/mL (≈ 186 µM) | 128 µg/mL (≈ 371 µM) | 128 µg/mL (≈ 371 µM) | 128 µg/mL (≈ 371 µM) | 64 µg/mL (≈ 186 µM) | 2 µg/mL (≈ 5.8 µM) |  | 
OC(c1ccc(Cl)cc1)(c1cncnc1)c1ccccc1Cl (stereo not drawn) [fenarimol] |  |  |  |  |  |  |  |  |  |  |  |  |  |  |  |  |  |  |  | 100 µg/mL (≈ 302 µM) | MIC [2]: 100 µg/mL (≈ 302 µM)
Clc1ccccc1C(c1ccccc1)(c1ccccc1)n1ccnc1 [clotrimazole] | 16 µg/mL (≈ 46.4 µM) | 16 µg/mL (≈ 46.4 µM) | 16 µg/mL (≈ 46.4 µM) | 16 µg/mL (≈ 46.4 µM) | 8 µg/mL (≈ 23.2 µM) | 8 µg/mL (≈ 23.2 µM) | 8 µg/mL (≈ 23.2 µM) | 8 µg/mL (≈ 23.2 µM) | 16 µg/mL (≈ 46.4 µM) | 16 µg/mL (≈ 46.4 µM) | 8 µg/mL (≈ 23.2 µM) | 16 µg/mL (≈ 46.4 µM) | 16 µg/mL (≈ 46.4 µM) | 16 µg/mL (≈ 46.4 µM) | 16 µg/mL (≈ 46.4 µM) | 16 µg/mL (≈ 46.4 µM) | 16 µg/mL (≈ 46.4 µM) | 16 µg/mL (≈ 46.4 µM) | 2 µg/mL (≈ 5.8 µM) |  | 
CCCCCCCCCCCCCN1CC(C)OC(C)C1 (stereo not drawn) [tridemorph] |  |  |  |  |  |  |  |  |  |  |  |  |  |  |  |  |  |  |  | 100 µg/mL (≈ 336 µM) | MIC [2]: 50 µg/mL (≈ 168 µM)
CCC1COC(Cn2cncn2)(c2ccc(Cl)cc2Cl)O1 (stereo not drawn) [etaconazole] |  |  |  |  |  |  |  |  |  |  |  |  |  |  |  |  |  |  |  | > 100 µg/mL | MIC [2]: > 100 µg/mL
Clc1ccc(COC(Cn2ccnc2)c2ccc(Cl)cc2Cl)c(Cl)c1 (stereo not drawn) [miconazole] | 128 µg/mL (≈ 308 µM) | 128 µg/mL (≈ 308 µM) | 128 µg/mL (≈ 308 µM) | 128 µg/mL (≈ 308 µM) | 128 µg/mL (≈ 308 µM) | 128 µg/mL (≈ 308 µM) | 128 µg/mL (≈ 308 µM) | 64 µg/mL (≈ 154 µM) | 128 µg/mL (≈ 308 µM) | 128 µg/mL (≈ 308 µM) | 128 µg/mL (≈ 308 µM) | 128 µg/mL (≈ 308 µM) | 128 µg/mL (≈ 308 µM) | 128 µg/mL (≈ 308 µM) | 128 µg/mL (≈ 308 µM) | 128 µg/mL (≈ 308 µM) | 128 µg/mL (≈ 308 µM) | 128 µg/mL (≈ 308 µM) | 2 µg/mL (≈ 4.81 µM) |  | 
